From ChEMBL document CHEMBL1150712, “Plant anticancer agents, XLIII. (E,E)-7, 12-dioxo-octadeca-8, 10-dien-1-oic acid (ostopanic acid), a cytotoxic fatty acid from Ostodes Paniculata” (1987)
Values after ≈ are worked out from the molar mass of the structure shown.

System: P388
Assay: Cytotoxicity against mouse P388 cells
Assay type: functional
Details: read-out: ED50 (the source's name)

`CCCCCCC(=O)/C=C/C=C/C(=O)CCCCCC(=O)O` [OSTOPANIC ACID] showed an EC50 of 1.5 µg/mL (≈ 4.86 µM).
